Earlier results on 2 compounds are cited in patent publication US20130116211A1, “Novel Salts Of Boswellic Acids And Selectively Enriched Boswellic Acids And Processes For The Same” (priority 2005, published 2013).

One data set deals with T1, 5-LOX (Homo sapiens, UniProt P09917).
T1 sequence (P09917 1-674): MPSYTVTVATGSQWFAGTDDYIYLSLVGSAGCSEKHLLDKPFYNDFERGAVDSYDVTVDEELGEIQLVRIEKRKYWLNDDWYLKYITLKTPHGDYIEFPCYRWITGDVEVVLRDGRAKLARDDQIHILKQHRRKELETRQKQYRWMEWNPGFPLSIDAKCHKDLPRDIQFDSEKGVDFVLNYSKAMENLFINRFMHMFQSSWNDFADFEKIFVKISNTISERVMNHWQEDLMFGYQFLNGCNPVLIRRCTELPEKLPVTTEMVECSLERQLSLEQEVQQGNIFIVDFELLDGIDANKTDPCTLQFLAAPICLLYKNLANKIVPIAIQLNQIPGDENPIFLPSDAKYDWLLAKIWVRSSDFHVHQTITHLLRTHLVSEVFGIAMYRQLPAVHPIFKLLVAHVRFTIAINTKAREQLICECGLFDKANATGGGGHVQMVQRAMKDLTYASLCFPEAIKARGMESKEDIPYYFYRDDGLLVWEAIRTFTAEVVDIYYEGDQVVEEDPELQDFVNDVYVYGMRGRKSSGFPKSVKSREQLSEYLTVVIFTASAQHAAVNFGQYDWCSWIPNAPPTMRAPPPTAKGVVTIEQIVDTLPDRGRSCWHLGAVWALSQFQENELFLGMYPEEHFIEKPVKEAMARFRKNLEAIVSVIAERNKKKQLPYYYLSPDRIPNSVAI

Data set [1] has as its system symptoms of osteoarthritis. To be noted: relieving the symptoms of osteoarthritis, double-blind studies.

Take “3-O-acetyl-11-keto-β-boswellic acid [AKBA]”: the “mechanism of 5-LOX inhibition” value at 5-LOX (binds in a calcium-dependent and reversible manner (Sailer 1998)) is listed as “non-redox-type, non-competitive inhibitor”. The “inhibitory activity against 5-LOX” value at 5-LOX (compared among all the six boswellic acids (Sailer 1996)) is reported as “most pronounced inhibitory activity”.
Take `N[C@H]1C(O)O[C@H](CO)[C@@H](O)[C@@H]1O.O=S(=O)(O)O` (stereo partly drawn) [glucosamine sulfate]: the “therapeutic effects versus non steroidal anti-inflammatory drugs” value in data set [1] is “comparable to or even better than”.
